Measured values reported in patent US8518942B2, “Caspase inhibitors and uses thereof” (Buck Institute for Research on Aging, priority 2008, dated 2013).

Experiments:
Format in all cases: biochemical
[1] = target: T1, Caspase 3 (Homo sapiens, UniProt P42574); test: Irreversible inhibitor kinetic assay (progress curve), caspase-3, substrate Ac-DEVD-AMC; parameters: gift: Guy Salvesen's laboratory, Burnham Institute (La Jolla, Calif.); settings: casp-3; duplicate, SD included
T1 sequence (P42574 29-175 limits assumed): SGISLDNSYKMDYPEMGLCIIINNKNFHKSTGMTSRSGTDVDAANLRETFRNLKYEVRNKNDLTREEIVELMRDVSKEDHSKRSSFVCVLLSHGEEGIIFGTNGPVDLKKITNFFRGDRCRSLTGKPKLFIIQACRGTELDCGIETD
T1 sequence (P42574 176-277 limits assumed): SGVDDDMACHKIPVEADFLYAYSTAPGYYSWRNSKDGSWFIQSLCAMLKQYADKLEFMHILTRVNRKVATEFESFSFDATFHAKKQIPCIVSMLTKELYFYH
Source text: (§1) Caspases-3, -6, -7, -8, and -9 were provided by Guy Salvesen's laboratory at the Burnham Institute (La Jolla, Calif.). Caspase-1 was purchased from EMD Biosciences (San Diego, Calif.) and Caspase-2 was purchased from Biomol International (Plymouth Meeting, Pa.). Caspase substrates Ac-DEVD-AMC, Ac-VDVAD-AFC, and Ac-LEHD-AFC were purchased from EMD Biosciences (San Diego, Calif.) and Ac-VDVAD-AMC was purchased from Biomol International (Plymouth Meeting, Pa.). The proteolytic cleavage of N-acyl aminocoumarins by caspases was conducted in Dynatech Microfluor fluorescence 96-well microtiter plates, and readings were taken on a Molecular Devices Spectra Max Gemini XS instrument. The excitation wavelength was 370 nm and the emission wavelength was 455 nm for AMCA substrates, the excitation wavelength was 355 nm and the emission wavelength was 450 nm for peptidyl AMC substrates, and the excitation wavelength was 430 nm and the emission wavelength was 535 nm for peptidyl AFC substrates.
(§2) The kinact/Ki for inhibitors were determined under pseudo-first order conditions using the progress curve method (Eckici et al. (2006) J. Med. Chem., 49: 5728-5749; Bieth (1995) Meth. Enzymol., 248: 59-84). Assay wells contained a mixture of inhibitor and AMC or AFC substrate in buffer. Aliquots of caspase were added to each well to initiate the assay. Hydrolysis of the AMC or AFC substrate was monitored fluorometrically for 45 min. To determine the inhibition parameters, time points for which the control ([I]=0) was linear were used. For each inhibitor, a kobs was calculated for at least four different concentrations of inhibitors via a nonlinear regression of the data according to the equation P=(vi/kobs)[1−exp(−kobst) (where product formation=P, […], and the first-order rate constant=kobs). If kobs varied linearly with [I], then the association constant kass was determined by linear regression analysis using kobs=(kass[I])/(1+[S]/Km) where [S] is the concentration of the substrate. […] Inhibition was measured in duplicate and the average of is reported. […]

[2] = target: T2, caspase-5 (Homo sapiens, UniProt P51878); test: Irreversible inhibitor kinetic assay (progress curve), caspase-5, substrate Ac-WEHD-AMC; settings: casp-5; duplicate, SD included
T2 sequence (P51878 137-327 limits assumed): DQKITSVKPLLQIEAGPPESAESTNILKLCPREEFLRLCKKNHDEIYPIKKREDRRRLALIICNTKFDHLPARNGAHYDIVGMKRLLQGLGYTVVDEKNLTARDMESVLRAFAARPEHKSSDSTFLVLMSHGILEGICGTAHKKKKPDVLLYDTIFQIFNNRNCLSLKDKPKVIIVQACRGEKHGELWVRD
T2 sequence (P51878 347-434 limits assumed): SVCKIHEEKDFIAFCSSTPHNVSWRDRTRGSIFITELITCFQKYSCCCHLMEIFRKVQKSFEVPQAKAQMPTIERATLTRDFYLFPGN
Source text: as §1, §2

[3] = target: T3, caspase-2 (Homo sapiens, UniProt P42575); test: Blots of full-length huntingtin (23Q & 148Q) treated with caspase-2 plus inhibitor; settings: for Inhibition of caspase-2 cleavage of full-length huntingtin (blot): 23Q & 148Q, at the higher concentration of 10 μM; for Caspase-2 cleavage of Htt: conclusion
T3 sequence (P42575 170-325 limits assumed): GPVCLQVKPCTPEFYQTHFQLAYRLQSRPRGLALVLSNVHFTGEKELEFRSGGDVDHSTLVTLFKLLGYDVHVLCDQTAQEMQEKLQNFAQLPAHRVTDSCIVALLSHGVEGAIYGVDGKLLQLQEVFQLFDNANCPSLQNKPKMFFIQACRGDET
T3 sequence (P42575 348-452 limits assumed): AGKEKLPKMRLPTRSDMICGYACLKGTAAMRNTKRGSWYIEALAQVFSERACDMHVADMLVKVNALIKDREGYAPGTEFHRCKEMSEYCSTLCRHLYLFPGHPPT

kinact/Ki [1]	kinact/Ki [2]	Inhibition of caspase-2 cleavage of full-length huntingtin (blot) [3]	Caspase-2 cleavage of Htt [3]	Compound
47,000 ± 1,400 s^−1/M^−1	2,250 ± 350 s^−1/M^−1	slight inhibition	do not inhibit	C[C@@](NS(=O)(=O)Cc1ccccc1)(c1cn([C@@H](CC(=O)O)C(=O)COc2c(F)c(F)cc(F)c2F)nn1)C1CCCCC1 [MJL-001i]
81,700 ± 6,900 s^−1/M^−1	16,500 ± 850 s^−1/M^−1	–	do not inhibit	C[C@@](NC(=O)CCCC(=O)O)(c1cn([C@@H](CC(=O)O)C(=O)COc2c(F)c(F)cc(F)c2F)nn1)C1CCCCC1 [MJL-002i]
29,850 ± 850 s^−1/M^−1	3,300 ± 200 s^−1/M^−1	slight inhibition	do not inhibit	C[C@@](NC(=O)Cc1ccccc1)(c1cn([C@@H](CC(=O)O)C(=O)COc2c(F)c(F)cc(F)c2F)nn1)C1CCCCC1 [MJL-003i]
